Reference: the supplement of paper PMC10790783
Counter-ions that a name gives are not always drawn.

Test system: MRC5-hT fibroblasts expressing HCMV UL38 (glucose-free medium)
Assay: rescue of cell number (AUC of dose-response) relative to untreated glucose-free control; higher = stronger protection from glucose-starvation-induced cell death
Settings: glucose: 0 (glucose-free DMEM); 96 h; dose range 0.001-20, 10-point curve µM
Method: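 MRC5-hT fibroblasts stably expressing HCMV UL38 were seeded in 384-well plates, serum-starved for 24 h, switched to glucose-free DMEM, and pin-transferred with a metabolism-focused compound library as 10-point dose curves (1 nM to 20 µM; n=2). Nuclei were counted by Hoechst imaging 96 h after glucose withdrawal.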

SMILES | rescue of cell number
CC1=C(/C=C/C(C)=C/C=C/C(C)=C/C(=O)O)C(C)(C)CCC1 [Tretinoin] | 10%
CNC(=O)c1ccc2cc([C@@]3(O)CCn4cncc43)ccc2c1 [TAK_700] | -25.3%
CCCCNc1cc(C(=O)O)cc(S(N)(=O)=O)c1Oc1ccccc1 [Bumetanide] | -20.9%
NS(=O)(=O)c1ccc(NC(=O)Nc2ccc(F)cc2)cc1 [U_104] | -34.7%
O=C(O)c1ccccc1SC1=NS(=O)(=O)c2ccccc21 | -13.9%
CC1(C)C(N(O)C(=O)Nc2ccc(Cl)cc2)N(c2ccc(Cl)cc2)C(=O)N1CC(=O)NN=CC=Cc1ccc([N+](=O)[O-])o1 (stereo not given) [Eeyarestatin_I] | 11.4%
C=C(C)[C@H]1Cc2c(ccc3c2O[C@@H]2COc4cc(OC)c(OC)cc4[C@@H]2C3=O)O1 [Rotenone] | 13.7%
CCCC(CCC)C(=O)O [Valproic_acid] | -34%
COc1ccc(N(C(=O)CCl)C(C(=O)NCCc2ccccc2)c2cccs2)cc1Cl (stereo not given) [ML-162] | 15.3%
CC1(C)CCC2=C(O1)c1ccccc1C(=O)C2=O [beta_Lapachone] | 70.8%
N=C(N)NC(=N)NCCc1ccccc1 [Phenformin] | -11.3%
CN1Cc2c(N)cccc2C(c2ccccc2)C1 (stereo not given) [Nomifensine] | -5.61%
NCCc1ccc(S(=O)(=O)F)cc1 [AEBSF] | 50.3%
c1cc(-c2cnn3cc(-c4ccc(OCCN5CCCCC5)cc4)cnc23)ccn1 [Dorsomorphin] | 66.2%
CCCCC/C=C/C(=O)CCc1ccc(O)c(OC)c1 [Shogaol] | -6.33%
NCCOCCOCCNC(=O)Cc1ccc(Nc2nc(NCc3ccc(F)cc3)nc(NCC3CCCCC3)n2)cc1 [AP-III-a4] | 33.4%
CCCCCCCCCCCCC/C=C/[C@@H](O)[C@H](CO)N(C)C [N_N_Dimethylsphingosine] | 18.1%
O=C(O)c1cc(/N=N/c2ccc(S(=O)(=O)Nc3ccccn3)cc2)ccc1O [Sulfasalazine] | 87.4%
CC(C)(O)CNc1nc(Nc2ccnc(C(F)(F)F)c2)nc(-c2cccc(C(F)(F)F)n2)n1 [AG-221] | 26.9%
COc1cccc2c(NCc3ccccc3)nc(-n3c(N)nc4ccccc43)nc12 [ML_240] | 50.1%
CCOC(=O)[C@@H](N)CCC(=O)N[C@@H](CSCc1ccccc1)C(=O)N[C@@H](C(=O)OCC)c1ccccc1 [Telintra] | 16.7%
Cc1nc(=O)c2cc(CN(C)c3ccc(C(=O)N[C@@H](CCC(=O)O)C(=O)O)s3)ccc2[nH]1 [Raltitrexed] | -26.7%
OCC(CO)N[C@H]1C[C@](O)(CO)[C@@H](O)[C@H](O)[C@H]1O [Voglibose] | -36.2%
O[C@H]1[C@H](O)[C@@H](O)CN2CC[C@H](O)[C@H]12 [Castanospermine] | -30.6%
O=C(O)C(=O)CBr [Bromopyruvic_acid] | 134%

SMILES | rescue of cell number
Cc1cc(=O)oc2c(C=O)c(O)ccc12 [4mu8C] | 23.6%
CCC(C)SSc1ncc[nH]1 (stereo not given) [PX_12] | -1.42%
N#CSc1cc(SC#N)c(N)nc1N [PR-619] | -9.68%
CC(C)(C)c1ccc(S(=O)(=O)NCc2ccc(C(=O)Nc3cccnc3)cc2)cc1 [STF_31] | 26.1%
N#CC(CCCN1CCN(/N=C/c2cccnc2)CC1)(c1ccccc1)c1ccccc1 | 99.9%
CC(C)c1cc(C(C)C)c(CC(=O)NS(=O)(=O)Oc2c(C(C)C)cccc2C(C)C)c(C(C)C)c1 [Avasimibe] | 7.22%
CC(=O)OC[C@H]1O[C@@H]([S-])[C@H](OC(C)=O)[C@@H](OC(C)=O)[C@@H]1OC(C)=O.CCP(CC)CC.[Au+] [Auranofin] | -0.594%
Cc1cc(/C=C/c2ccc3cc(N(C)C)ccc3[n+]2C)c(C)n1-c1ccccc1 [Pyrvinium_pamoate] | 5.84%
CCOc1ccccc1-n1c(C(C)N2CCN(C(=O)COc3ccc(Cl)cc3)CC2)nc2ccccc2c1=O (stereo not given) [Erastin] | 68.6%
O=C1N[C@@H]2[C@@H](O)[C@@H](O)[C@H](O)[C@@H](CO)N2C1=O [Kifunensine] | 123%
CC(C)(C(=O)c1cccnc1)c1cccnc1 [Metyrapone] | 87.6%
Oc1ccc(Nc2nc(-c3ccc(Cl)cc3)cs2)cc1 [SKI_II] | 0.0721%
CNc1ccc(C(=O)Oc2cc(O/N=[N+](\[O-])N(C)C)c([N+](=O)[O-])cc2[N+](=O)[O-])cc1 [PABA_NO] | -16.1%
CC/C=C\C[C@H]1C(=O)CC[C@@H]1CC(=O)O [Jasmonate] | -19.1%
CCN(CC)C(=S)SSC(=S)N(CC)CC [Disulfiram] | 113%
COc1cc2c(cc1O)CC[C@@H]1[C@@H]2CC[C@]2(C)[C@@H](O)CC[C@@H]12 [2_Methoxyestradiol] | 22.8%
Cc1[nH]nc(C(F)(F)F)c1Cc1sc2c(c1C(=O)N1C[C@](C)(O)CO1)c(=O)n(C)c(=O)n2C(C)C [AZD3965] | 0.308%
Cc1cnc(Nc2ccc(OCCN3CCCC3)cc2)nc1Nc1cccc(S(=O)(=O)NC(C)(C)C)c1 [Fedratinib] | 40.7%
CC(=O)c1c(O)c(C)c(O)c(Cc2c(O)c3c(c(C(=O)/C=C/c4ccccc4)c2O)OC(C)(C)C=C3)c1O [Rottlerin] | 24.6%
CCCCCCCC/C=C\CCCCCCCC(=O)NCCO [Oleylethanolamide] | -13.2%
c1ccc2c(c1)[I+]c1ccccc1-2 [Diphenyleneiodonium_chloride] | 22.9%
CCCCC[C@H](O)CC(=O)CCc1ccc(O)c(OC)c1 [[6]-Gingerol] | -29.7%
Nc1cccc(S(=O)(=O)N2CCCN(S(=O)(=O)c3ccc4c(c3)OCCO4)CC2)c1 [DASA-58] | 68%
Cc1nc(-c2ccc(OCC(C)C)c(C#N)c2)sc1C(=O)O [Febuxostat] | 73.9%
CCCc1cc(-c2nc(-c3ccc(C)cc3)cs2)ccn1 [Fatostatin_A] | 76.5%

SMILES | rescue of cell number
S=c1[nH]cnc2nc[nH]c12 [Mercaptopurine] | -32.1%
[N-]=[N+]=[N-] [Sodium_Azide] | -38.1%
CCOC(=O)c1sc(NC(=O)c2ccco2)c(SC#N)c1C [CBR 5884] | 88%
Oc1cc(Cl)ccc1Oc1ccc(Cl)cc1Cl [Triclosan] | 5.01%
COc1cc(/C=C/C(=O)N2CCC=CC2=O)cc(OC)c1OC [Piperlongumine] | 36.8%
CN(N=O)C(=O)N[C@@H](C=O)[C@@H](O)[C@H](O)[C@H](O)CO [Streptozocin] | 33.4%
CCN[C@H]1C[C@H](C)S(=O)(=O)c2sc(S(N)(=O)=O)cc21 [Dorzolamide] | 104%
C/C=C(/C)C(=O)O[C@H]1C(C)=C2[C@H]([C@@H]1OC(=O)CCCCCCC)[C@@](C)(OC(C)=O)C[C@H](OC(=O)CCC)[C@@]1(O)[C@H]2OC(=O)[C@@]1(C)O [Thapsigargin] | 25.4%
O=c1cc(-c2ccc(O)cc2)oc2cc(O)cc(O)c12 [Apigenin] | 58%
O=c1[nH]cc(F)c(=O)[nH]1 [5_Fluorouracil] | -15.2%
Clc1ccc(C(c2ccccc2Cl)C(Cl)Cl)cc1 (stereo not given) [Mitotane] | 9.97%
Cc1cn[nH]c1 [Fomepizole] | 81.1%
Nc1ccn([C@@H]2O[C@H](CO)[C@@H](O)C2(F)F)c(=O)n1 [Gemcitabine] | -5.76%
COc1c(C)c2c(c(O)c1C/C=C(\C)CCC(=O)O)C(=O)OC2 [Mycophenolic_Acid] | 51.6%
O=C(/C=C/c1ccc(O)c(O)c1)O[C@@H]1C[C@](O)(C(=O)O)C[C@@H](O)[C@H]1O [Chlorogenic_acid] | 95%
CCCCC[C@H](CC(=O)NO)C(=O)N[C@H](C(=O)N1CCC[C@H]1CO)C(C)C [Actinonin] | -1.46%
Cc1n[nH]c(C)c1Cc1sc2c(c1C(=O)N1C[C@H](O)CO1)c(=O)n(C)c(=O)n2CC(C)C | 78.9%
Cc1nc2ccc(C(=O)N3CCC4(CC3)CC(=O)c3c(cnn3C(C)C)C4)cc2[nH]1 | 31.8%
CCc1nc(N)nc(N)c1-c1ccc(Cl)cc1 [Pyrimethamine] | -35.1%
CC[C@H](C)C(=O)O[C@H]1C[C@H](O)C=C2C=C[C@H](C)[C@H](CC[C@@H](O)C[C@@H](O)CC(=O)O)[C@H]21 [Pravastatin] | -35.3%
CCOC(=O)[C@@H](N)CCC(=O)N[C@@H](CSCc1ccccc1)C(=O)N[C@@H](C(=O)OCC)c1ccccc1 [Ezatiostat] | -9.45%
CN(C)C(=N)NC(=N)N [Metformin] | -36.3%
CC1=C(/C=C/C(C)=C/C=C/C(C)=C\C(=O)O)C(C)(C)CCC1 [Isotretinoin] | 128%
COC(=O)/C=C/C(=O)OC [Dimethyl fumarate] | 67.2%
O=c1c2ccccc2[se]n1-c1ccccc1 [Ebselen] | -18.8%
